Source: ChEMBL document CHEMBL1135667, “Synthesis of halogen-substituted pyridyl and pyrimidyl derivatives of [3,2-c]pyrazolo corticosteroids: strategies for the development of glucocorticoid receptor mediated imaging agents” (J Med Chem, 2002)

Target: T1, Glucocorticoid receptor (Homo sapiens) (UniProt P04150)
T1 sequence (whole entry): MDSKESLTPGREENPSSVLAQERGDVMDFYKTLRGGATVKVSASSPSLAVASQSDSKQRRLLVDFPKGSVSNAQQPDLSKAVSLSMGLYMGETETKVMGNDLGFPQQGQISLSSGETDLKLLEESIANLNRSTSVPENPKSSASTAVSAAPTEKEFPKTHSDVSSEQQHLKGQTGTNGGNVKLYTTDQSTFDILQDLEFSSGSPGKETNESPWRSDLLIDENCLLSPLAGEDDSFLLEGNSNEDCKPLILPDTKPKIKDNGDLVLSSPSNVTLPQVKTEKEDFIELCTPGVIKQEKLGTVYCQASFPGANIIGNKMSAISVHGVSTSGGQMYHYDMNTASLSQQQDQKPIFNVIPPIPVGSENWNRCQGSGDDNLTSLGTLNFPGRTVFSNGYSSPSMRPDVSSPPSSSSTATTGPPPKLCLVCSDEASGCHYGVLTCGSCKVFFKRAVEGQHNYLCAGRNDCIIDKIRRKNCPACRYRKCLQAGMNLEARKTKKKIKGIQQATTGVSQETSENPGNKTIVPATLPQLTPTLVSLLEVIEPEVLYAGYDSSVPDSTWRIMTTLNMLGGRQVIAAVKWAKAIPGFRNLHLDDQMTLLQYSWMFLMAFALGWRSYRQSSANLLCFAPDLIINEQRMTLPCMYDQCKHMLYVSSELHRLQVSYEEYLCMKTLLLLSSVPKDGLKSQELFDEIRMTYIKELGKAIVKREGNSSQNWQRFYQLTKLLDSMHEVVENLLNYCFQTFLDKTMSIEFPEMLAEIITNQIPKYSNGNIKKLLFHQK
Conditions: HeLa
Description: Relative transcriptional activation in HeLa cells expressing glucocorticoid receptor

Row | SMILES | RSA
1 | C[C@@H]1CC2C3CCC4=Cc5c(cnn5-c5cccnc5F)CC4(C)C3C(O)CC2(C)[C@@]1(O)C(=O)CO (some centres not stated) | 121
2 | C[C@@H]1CC2C3CCC4=Cc5c(cnn5-c5ccccn5)CC4(C)C3C(O)CC2(C)[C@@]1(O)C(=O)CO (some centres not stated) | 30
3 | C[C@@H]1CC2C3CCC4=Cc5c(cnn5-c5ccc(F)nc5)CC4(C)C3C(O)CC2(C)[C@@]1(O)C(=O)CO (some centres not stated) | 436
4 | C[C@@H]1CC2C3CCC4=Cc5c(cnn5-c5ccncc5)CC4(C)C3C(O)CC2(C)[C@@]1(O)C(=O)CO (some centres not stated) | 135
5 | C[C@@H]1CC2C3CCC4=Cc5c(cnn5-c5ccncn5)CC4(C)C3C(O)CC2(C)[C@@]1(O)C(=O)CO (some centres not stated) | 0
6 | C[C@@H]1CC2C3CCC4=Cc5c(cnn5-c5ccc(Cl)nc5)CC4(C)C3C(O)CC2(C)[C@@]1(O)C(=O)CO (some centres not stated) | 24
7 | C[C@@H]1CC2C3CCC4=Cc5c(cnn5-c5cccnc5Cl)CC4(C)C3C(O)CC2(C)[C@@]1(O)C(=O)CO (some centres not stated) | 97

The remaining lines, values ahead:

Row | RSA | SMILES
8 | 100 | C[C@@H]1C[C@H]2[C@@H]3CCC4=CC(=O)C=C[C@]4(C)[C@@]3(F)[C@@H](O)C[C@]2(C)[C@@]1(O)C(=O)CO
9 | 255 | C[C@@H]1CC2C3CCC4=Cc5c(cnn5-c5cccnc5)CC4(C)C3C(O)CC2(C)[C@@]1(O)C(=O)CO (some centres not stated)
10 | 0 | C[C@@H]1CC2C3CCC4=Cc5c(cnn5-c5ncccn5)CC4(C)C3C(O)CC2(C)[C@@]1(O)C(=O)CO (some centres not stated)
11 | 33 | C[C@@H]1CC2C3CCC4=Cc5c(cnn5-c5cnccc5Cl)CC4(C)C3C(O)CC2(C)[C@@]1(O)C(=O)CO (some centres not stated)
12 | 483 | C[C@@H]1CC2C3CCC4=Cc5c(cnn5-c5ccc(F)cc5)CC4(C)C3C(O)CC2(C)C1(O)C(=O)CO (some centres not stated)
